Source: PMC7851572, “A Pichia biosensor for high‐throughput analyses of compounds that can influence mosquito behavior” (MicrobiologyOpen, 2020)

Target: T1, olfactory receptor co-receptor (Orco) (Anopheles gambiae, UniProt Q7QCC7)
T1 construct: codon-optimized Orco cDNA in pPICZA (C-terminal c-myc tag detected), expressed in Pichia pastoris GS115
T1 sequence (Q7QCC7 1-478): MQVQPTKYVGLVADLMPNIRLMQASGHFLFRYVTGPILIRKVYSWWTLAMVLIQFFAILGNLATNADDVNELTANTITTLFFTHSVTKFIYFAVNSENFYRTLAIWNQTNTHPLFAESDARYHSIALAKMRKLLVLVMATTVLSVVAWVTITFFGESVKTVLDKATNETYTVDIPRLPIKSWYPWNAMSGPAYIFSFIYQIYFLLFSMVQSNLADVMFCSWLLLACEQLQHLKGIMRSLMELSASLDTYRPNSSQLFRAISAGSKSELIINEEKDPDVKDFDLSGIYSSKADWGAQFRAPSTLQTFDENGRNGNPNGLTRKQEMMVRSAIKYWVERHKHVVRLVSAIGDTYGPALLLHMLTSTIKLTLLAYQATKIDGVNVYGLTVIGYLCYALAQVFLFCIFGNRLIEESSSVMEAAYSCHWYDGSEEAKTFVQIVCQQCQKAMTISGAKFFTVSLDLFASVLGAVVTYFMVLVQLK
Assay: fluo-4-AM calcium influx assay in Pichia pastoris expressing Orco, compared with GS115 control cells ([…] extracellular Ca2+)
Format: cell-based

Molecule `CCc1ccc(NC(=O)CSc2nnc(-c3cccnc3)n2CC)cc1` [VUAA1, 2‐(4‐ethyl‐5‐(pyridin‐3‐yl)‐4H‐1,2,4‐triazol‐3‐ylthio)‐N‐(4‐ethylphenyl)acetamide] has an EC50 of 410 µM.
